For this assay, the target named is Cystic fibrosis transmembrane conductance regulator (Homo sapiens, UniProt P13569).
Cystic fibrosis transmembrane conductance regulator, sequence (P13569 whole entry): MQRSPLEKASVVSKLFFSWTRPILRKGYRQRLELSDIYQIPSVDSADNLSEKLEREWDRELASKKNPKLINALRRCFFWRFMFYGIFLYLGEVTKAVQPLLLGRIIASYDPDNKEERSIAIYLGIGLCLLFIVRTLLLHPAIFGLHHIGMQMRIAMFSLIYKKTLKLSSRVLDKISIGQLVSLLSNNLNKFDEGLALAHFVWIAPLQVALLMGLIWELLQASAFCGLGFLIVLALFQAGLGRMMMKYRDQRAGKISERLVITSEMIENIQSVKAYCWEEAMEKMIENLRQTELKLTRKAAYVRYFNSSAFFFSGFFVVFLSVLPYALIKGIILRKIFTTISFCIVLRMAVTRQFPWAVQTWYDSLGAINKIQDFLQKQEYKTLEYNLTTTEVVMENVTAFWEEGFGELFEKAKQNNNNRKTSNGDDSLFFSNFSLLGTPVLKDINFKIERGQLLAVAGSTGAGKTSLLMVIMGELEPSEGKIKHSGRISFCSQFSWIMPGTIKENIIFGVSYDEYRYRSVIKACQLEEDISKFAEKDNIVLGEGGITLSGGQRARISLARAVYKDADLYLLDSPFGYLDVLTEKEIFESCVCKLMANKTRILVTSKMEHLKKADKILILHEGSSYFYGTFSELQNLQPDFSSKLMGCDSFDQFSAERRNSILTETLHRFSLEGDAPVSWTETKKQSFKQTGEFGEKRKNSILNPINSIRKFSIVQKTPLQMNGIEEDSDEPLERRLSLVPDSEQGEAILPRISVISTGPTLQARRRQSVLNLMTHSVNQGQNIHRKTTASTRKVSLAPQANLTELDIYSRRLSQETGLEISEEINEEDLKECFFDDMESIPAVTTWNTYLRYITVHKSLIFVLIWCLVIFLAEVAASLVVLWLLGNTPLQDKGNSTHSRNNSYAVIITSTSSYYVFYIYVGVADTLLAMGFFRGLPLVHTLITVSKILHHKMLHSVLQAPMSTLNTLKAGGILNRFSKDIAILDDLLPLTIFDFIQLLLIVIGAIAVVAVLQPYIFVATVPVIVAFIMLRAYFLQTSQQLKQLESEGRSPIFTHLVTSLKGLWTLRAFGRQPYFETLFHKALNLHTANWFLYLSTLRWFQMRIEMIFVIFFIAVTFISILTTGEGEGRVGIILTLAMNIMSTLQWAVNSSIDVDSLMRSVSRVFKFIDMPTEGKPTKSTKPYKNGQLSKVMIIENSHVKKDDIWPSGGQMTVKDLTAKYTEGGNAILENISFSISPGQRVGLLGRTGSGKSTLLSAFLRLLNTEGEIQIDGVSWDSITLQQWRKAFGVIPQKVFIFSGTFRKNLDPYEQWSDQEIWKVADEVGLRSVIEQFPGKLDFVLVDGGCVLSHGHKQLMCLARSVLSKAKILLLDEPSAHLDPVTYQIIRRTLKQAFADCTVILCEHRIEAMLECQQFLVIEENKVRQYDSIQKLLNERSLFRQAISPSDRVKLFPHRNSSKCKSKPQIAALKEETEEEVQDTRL
By EC50 is commonly meant the concentration giving half of the maximal effect. Read a high EC50 as weaker potency. Usually IC50 stands for the concentration that inhibits the measured activity by half. On to `O=C(O)/C=C/c1ccc(Cn2ccnc2)cc1`, for which the EC50 is greater than 50 µM and the half-inhibitory concentration (IC50) amounted to 3.43 µM.

As for `CC(C)C[C@H](NC(=O)[C@H](Cc1ccccc1)NC(=O)c1cnccn1)B(O)O`, the half-maximal effective concentration (EC50) is greater than 50 µM.

For the compound `CN(C/C=C/C#CC(C)(C)C)Cc1cccc2ccccc12` [(6,6-Dimethyl-hept-2-en-4-ynyl)-methyl-naphthalen-1-ylmethyl-amine(Terbinafine)], the half-maximal effective concentration (EC50) was greater than 50 µM and the half-inhibitory concentration (IC50) is greater than 25 µM.

Compound `CO[C@H]1/C=C/O[C@@]2(C)Oc3c(C)c(O)c4c(c3C2=O)C(=O)/C(=C/NN2CCN(C)CC2)C(=C4O)NC(=O)/C(C)=C\C=C\C(C)[C@H](O)[C@@H](C)[C@@H](O)[C@@H](C)[C@@H](OC(C)=O)[C@@H]1C` (some centres undefined) [AB00052086_02] had a concentration giving a half-maximal response (EC50) greater than 50 µM.

In turn, `O=C(O)c1ccccc1-c1c2cc(Br)c(=O)cc-2oc2[c]([Hg])c(O)c(Br)cc12` [AB00053570_02] came in with a half-maximal effective concentration (EC50) greater than 50 µM and an IC50 greater than 50 µM.

Regarding `C[n+]1c2cc(N)ccc2cc2ccc(N)cc21` [AB00053810_11], the concentration giving a half-maximal response (EC50) was greater than 50 µM and half-maximal inhibition (IC50) required 5.71 µM.

As for `CN1[C@@H]2CC[C@H]1CC(OC(=O)C(CO)c1ccccc1)C2` (some centres undefined) [AB00694549-11], the EC50 is greater than 50 µM and it took 21.4 µM to reach half-maximal inhibition (IC50).

Turning to `COc1cc(/C=C(/C#N)c2nc(C)cs2)cc2c1OCO2` [AB00984802-01], the EC50 is greater than 67 µM and half-maximal inhibition (IC50) required 21 µM.

With `O=S(=O)(Nc1ccc(-c2cn3cccnc3n2)cc1)c1ccc2c(c1)OCCO2` [AB01003479-01], the EC50 is greater than 49 µM and the concentration for half-maximal inhibition (IC50) is greater than 49 µM.

In the case of `N#Cc1ccc(CN2CCc3cc([N+](=O)[O-])ccc32)c(F)c1` [AB01004372-01], the EC50 is greater than 67 µM and the IC50 was greater than 67 µM.

Turning to `CC(C)C[C@@H](NC(=O)[C@H](Cc1ccccc1)NC(=O)c1cnccn1)B(O)O` [AB01275474-01], the EC50 was greater than 50 µM and the IC50 was 1.29 µM.

Consider `CCN(CC)CCOc1ccc2c(c1)C(=O)c1cc(OCCN(CC)CC)ccc1-2` [Amixin IC], for which the EC50 was greater than 50 µM and inhibition was half-maximal at 30.2 µM (IC50).

In turn, `CCCc1nc(C)c2c(=O)[nH]c(-c3cc(S(=O)(=O)N4CCN(CC)CC4)ccc3OCC)nn12` [CHEBI:46295] registered an EC50 greater than 50 µM and an IC50 of 0.14 µM.

For `CO[C@H]1/C=C/O[C@@]2(C)Oc3c(C)c(O)c4c(c3C2=O)C(=O)/C(=C/NN2CCN(C)CC2)C(=C4O)NC(=O)/C(C)=C\C=C\[C@H](C)[C@H](O)[C@@H](C)[C@@H](O)[C@@H](C)[C@H](OC(C)=O)[C@@H]1C` [Rifampicin], the EC50 was greater than 50 µM.

`O=C(CCCCCCC(=O)Nc1ccccc1)NO` [Zolinza] had a concentration for a half-maximal effect (EC50) greater than 50 µM and an IC50 of 1.55 µM.

`Nc1ccc2cc3ccc(N)cc3nc2c1` [acridine-3,6-diamine] yielded a half-maximal effective concentration (EC50) greater than 50 µM and an IC50 of 8.88 µM.

For the origin of these results see BindingDB's records for doi:10.7270/Q2CZ35ZF (Southern Research Institute, 2016).
